From patent US7109193B2, “Tricyclic diazepines tocolytic oxytocin receptor antagonists” (Wyeth, priority 2001, dated 2006)

molecular target: T1, human vasopressin V1a receptor subtype (Homo sapiens, UniProt P37288); test: Vasopressin binding in Chinese Hamster Ovary cell membranes expressing human vasopressin V1a subtype receptors; conditions: 100 nM, CHO cell membranes, [3H]Manning ligand, values without parentheses
T1 construct: host or cells: CHO cells (pZeoSV vector for the Thibonnier line)
T1 sequence (P37288 whole entry): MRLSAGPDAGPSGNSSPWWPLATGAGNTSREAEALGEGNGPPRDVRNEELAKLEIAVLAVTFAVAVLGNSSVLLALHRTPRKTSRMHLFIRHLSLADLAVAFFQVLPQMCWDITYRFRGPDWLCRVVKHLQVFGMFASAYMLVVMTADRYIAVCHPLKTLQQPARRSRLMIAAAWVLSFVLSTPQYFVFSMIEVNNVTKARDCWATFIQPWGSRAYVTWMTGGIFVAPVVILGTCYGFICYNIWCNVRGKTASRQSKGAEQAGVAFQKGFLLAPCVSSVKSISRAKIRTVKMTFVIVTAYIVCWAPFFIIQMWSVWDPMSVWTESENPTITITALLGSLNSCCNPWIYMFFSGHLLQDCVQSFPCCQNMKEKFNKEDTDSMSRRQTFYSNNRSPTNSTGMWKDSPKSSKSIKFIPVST
Experimental: Vasopressin Binding in Chinese Hamster Ovary Cell Membranes Expressing Human Vasopressin V1a Subtype Receptors
The trypsin is removed by aspiration and the cells dislodged by tapping. Cell Culture medium (e.g. 30 mL for 1:30 split) is immediately added and mixed well to inactivate trypsin. 1 mL of detached cells is added to new culture flasks containing fresh cell culture medium (e.g., into 25 mL per T-150 flask), and mixed gently. The cells are incubated at 37° C. in 5% CO2. The medium is changed at 3 to 4 days interval (or as appropriate). […] All steps are done under sterile conditions. B. Membrane Preparation: The cells are washed twice gently with Hank's Balanced Salt solution (e.g,. use 10 mL per T-150 flask). […] The contents are transferred to centrifuge tubes (50 mL) kept in an ice bath. All subsequent steps are done at 4° C. The tubes are centrifuged at 300×g for 15 min (1380 rpm on SORVAL, Model RT6000D, using the rotor for 50 mL tubes). The supernatant is discarded and the cells suspended in homogenizing buffer(10 mM Tris-HCl containing 0.25 M sucrose and 1 mM EDTA, pH 7.4) ensuring that the volume of the buffer is about ten times the volume of the cell pellet. The cells are pooled into a centrifuge tube (50 mL) and homogenized with a Polytron at setting 6 for 10 sec. The homogenate is transferred into a Potter-Elvjehm homogenizer and homogenized with 3 strokes. The homogenate is centrifuged at 1500×g for 10 min at 4° C. (3100 rpm using SORVAL, model RT6000D, using the rotor for 50 mL tubes). The pellet is discarded. The supernatant is centrifuged at 100,000×g for 60 min. at 4° C. (Beckman L8-80M ultracentrifuge; spin at 37,500 rpm with rotor type 70 Ti for 50 mL tubes; 38,000 rpm with type 80Ti for 15 mL tubes; or 35,800 rpm with rotor type 45Ti). The supernantant is discarded and the pellet suspended in 3 to 4 mL of Tris buffer (50 mM TRIS-HCl, pH 7.4). The protein content is estimated by the Bradford or Lowry method. The volume of the membrane suspension is adjusted with the membrane buffer (50 mM Tris-HCl containing 0.1% BSA and 0.1 mM PMSF) to give 3.0 mg/mL (or as appropriate) of protein. The membranes are aliquoted and stored at −70° C. C. Radioligand Binding Assay: In wells of a 96-well format microtiter plate, is added 90, 110 or 130 μL (to make up a final volume of 200 μL) of assay buffer containing 50 mM of Tris-HCl (pH 7.4), BSA (heat inactivated, protease-free), […], 1 mg % aprotinin, 1 mg % leupeptin, 2 mg % 1,10-phenanthroline, 10 mg % trypsin inhibitor, and 0.1 mM PMSF. The inhibitors are added on the day of the experiment. The components are mixed at room temperature, and then kept in ice bath following adjustment of the pH to 7.4. […] 20 μL of 50% DMSO is added for Manning and other peptide ligands and the assay buffer volume is adjusted accordingly. To each well is added 50 μL of frozen membrane suspension thawed immediately prior to use and diluted in the assay buffer to the required concentration (equivalent to 25 to 50 μg of protein/well as needed). 20 μL of 8 nM [^3H]Manning ligand in the assay buffer, prepared just before use, is added, and incubated at room temperature for 60 min. shaking the plate on a mechanical shaker for the first 15 min. The incubation is stopped by rapid filtration of the plate contents followed by wash with ice-cold buffer (50 mM Tris-HCl, pH 7.4) using a cell harvester (Tomtek and Printed filtermat-B filter paper). The filter paper is thoroughly dried (7–12 min. in a microwave oven) and impregnated with MeltiLex B/H melt-on scintillation wax sheets and the radioactivity counted in a betaplate scintillation counter.
Binding data is either reported as percent inhibition at a certain concentration or if an IC50 was calculated, as a nanomolar concentration.

Structure (SMILES) | inhibition at 0.1 µM | V1a % inhibition @ 100 nM
Cc1ccccc1-c1ccc(C(=O)N2Cc3ccc(C(=O)N4CCC(N5CCCC5)CC4)n3Cc3ccccc32)cc1 [Example 141, {10-[(2′-Methyl[1,1′-biphenyl]-4-yl)carbonyl]-10,11-dihydro-5H-pyrrolo[2,1-c][1,4]benzodiazepin-3-yl}[4-(1-pyrrolidinyl)-1-piperidinyl]methanone] | -3% | –
COc1cc(C(=O)N2Cc3ccc(C(=O)N4CCC(N5CCCC5)CC4)n3Cc3ccccc32)ccc1-c1ccccc1C [Example 142, {10-[(2-Methoxy-2′-methyl[1,1′-biphenyl]-4-yl)carbonyl]-10,11-dihydro-5H-pyrrolo[2,1-c][1,4]benzodiazepin-3-yl}[4-(1-pyrrolidinyl)-1-piperidinyl]methanone] | 46% | –
COc1cccc(-c2cc(OC)c(C(=O)N3Cc4ccc(C(=O)N5CCC(N6CCCC6)CC5)n4Cc4ccccc43)cc2Cl)c1 [Example 143, {10-[(6-Chloro-3,3′-dimethoxy[1,1′-biphenyl]-4-yl)carbonyl]-10,11-dihydro-5H-pyrrolo[2,1-c][1,4]benzodiazepin-3-yl}[4-(1-pyrrolidinyl)-1-piperidinyl]methanone] | -3% | –
COc1cc(C(=O)N2Cc3ccc(C(=O)N4CCC(N5CCCC5)CC4)n3Cc3ccccc32)ccc1-c1cccc2ccccc12 [Example 144, {10-[3-Methoxy-4-(1-naphthyl)benzoyl]-10,11-dihydro-5H-pyrrolo[2,1-c][1,4]benzodiazepin-3-yl}[4-(1-pyrrolidinyl)-1-piperidinyl]methanone] | -1% | –
COc1ccccc1-c1ccc(C(=O)N2Cc3ccc(C(=O)N4CCC(N5CCCC5)CC4)n3Cc3ccccc32)cc1OC [Example 145, {10-[(2,2′-Dimethoxy[1,1′-biphenyl]4-yl)carbonyl]-10,11-dihydro-5H-pyrrolo[2,1-c][1,4]benzodiazepin-3-yl}[4-(1-pyrrolidinyl)-l-piperidinyl]methanone] | – | −4%
COc1cccc(-c2ccc(C(=O)N3Cc4ccc(C(=O)N5CCC(N6CCCC6)CC5)n4Cc4ccccc43)cc2OC)c1 [Example 146, {10-[(2,3′-Dimethoxy[1,1′-biphenyl]-4-yl)carbonyl]-10,11-dihydro-5H-pyrrolo[2,1-c][1,4]benzodiazepin-3-yl}[4-(1-pyrrolidinyl)-1-piperidinyl]methanone] | 37% | –
O=C(c1ccc2n1Cc1ccccc1N(C(=O)c1ccc(-c3cccc4ccccc34)cc1Cl)C2)N1CCC(N2CCCC2)CC1 [Example 147, {10-[2-Chloro-4-(1-naphthyl)benzoyl]-10,11-dihydro-5H-pyrrolo[2,1-c][1,4]benzodiazepin-3-yl}[4-(1-pyrrolidinyl)-1-piperidinyl]methanone] | 3% | –
Cc1cc(C(=O)N2Cc3ccc(C(=O)N4CCC(N5CCCC5)CC4)n3Cc3ccccc32)ccc1-c1ccccc1C(F)(F)F [Example 148, (10-{[2-Methyl-2′-(trifluoromethyl)[1,1′-biphenyl]-4-yl]carbonyl}-10,11-dihydro-5H-pyrrolo[2,1-c][1,4]benzodiazepin-3-yl)[4-(1-pyrrolidinyl)-1-piperidinyl]methanone] | -9% | –
COc1ccccc1-c1ccc(C(=O)N2Cc3ccc(C(=O)NCCN4CCCCC4)n3Cc3ccccc32)cc1C [Example 149, 10-[(2′-Methoxy-2-methyl[1,1′-biphenyl]-4-yl)carbonyl]-N-[2-(1-piperidinyl)ethyl]-10,11-dihydro-5H-pyrrolo[2,1-c][1,4]benzodiazepine-3-carboxamide] | 17% | –
Cc1ccccc1-c1ccc(C(=O)N2Cc3ccc(C(=O)NCCN4CCCCC4)n3Cc3ccccc32)cc1C [Example 150, 10-[(2,2′-Dimethyl[1,1′-biphenyl]-4-yl)carbonyl]-N-[2-(1-piperidinyl)ethyl]-10,11-dihydro-5H-pyrrolo[2,1-c][1,4]benzodiazepine-3-carboxamide] | 42% | –
